We go through two sequences from patent US12318365B2, “Inhibition of dipeptide repeat proteins” (ALS Therapy Development Institute, priority 2019, dated 2025).

No end group written: not given here.

For data set [1], the system named is NSC-34 cells. Description: Caspase-3 assay (apoptotic activity) in NSC-34 cells. As to conditions: DRP 0.01-3 μM, 24 h; compared to DMSO-treated controls. The format is cell-based. An excerpt: Caspase-3/CPP32 Assay: The caspase-3 assay is a fluorometric assay that measures apoptotic cell death. Apoptosis is a form of “programmed” cell death, in which a certain family of proteins inside the cell triggers a cascade of chemical reactions that result in the cell killing itself. One family of proteins involved in this process is the caspase protein family. Of the caspase proteins, caspase-2, 8, 9, and 10 are known as “initiators,” those that trigger the death cascade, and caspase-3, 6, and 7 are known as “executioners,” which carry out the actual killing of the cell. In a caspase-3 assay, cells treated with test compounds are lysed, and a substrate known as DEVD-AFC is added to the lysate. If active caspase-3 enzyme is present in the lysate, it will cleave AFC from the DEVD-AFC substrate, resulting in a fluorescent signal that can be quantified using a fluorescence microtiter plate reader. Thus, the apoptotic activity of cells treated with test compounds can be quantified. Greater fluorescence readings correspond to more apoptotic cell death.
Cells were plated in culture medium in 2 96-well plates at a density of 3.7×10^4 cells per well, and incubated overnight at 37° C., 5% CO2. The following day, immediately prior to addition of test compounds, existing culture medium was removed and replaced with staggered volumes of culture medium as in Example 1. A 10 mM stock of MS023 was thawed to room temperature and diluted as in Example 1. A 10 mM stock of GR15 (SEQ ID NO: 1) and a 10 mM stock of PR15 (SEQ ID NO: 2) were equilibrated to room temperature and diluted in warm culture medium to achieve a final concentration of 300 nM in wells.
The following conditions were plated in triplicate. Samples were surrounded by border wells on the outside of the plate filled with sterile Phosphate-buffered saline to prevent evaporation of volume in experimental wells during incubation; • Background (Culture medium only) • Untreated/“Cells Only” (Cells in culture medium) • DMSO Control (Cells treated only with the amount of DMSO that GR- and PR-treated cells were exposed to) • GR Only (Cells treated only with 300 nM GR15) (SEQ ID NO: 1) • Cells treated with […] GR15 (SEQ ID NO: 1) and one of the following doses of MS023: 60 μM, 30 μM, 10 μM, 3 μM, 1 μM. • PR Only (Cells treated only with 300 nM PR15) (SEQ ID NO: 2) • Cells treated with 300 nM PR15 (SEQ ID NO: 2) and one of the following doses of MS023: 60 μM, 30 μM, 10 μM, 3 μM, 1 μM. • Cells treated with only one of the following doses of MS023: 60 μM, 30 μM, 10 μM, 3 μM, 1 μM. • Positive controls (Cells treated with either 5 or 16 μM PAC-1 Caspase-3 activator)
Plates were incubated for 24 h at 37° C., 5% CO2. Cells were tested and data were analyzed using the procedure detailed in Caspase-3 assay kit instructions.
Cells were plated in culture medium in 2 96-well plates at a density of 3.7×10^4 cells per well, and incubated overnight at 37° C., 5% CO2. The following day, immediately prior to addition of test compounds, existing culture medium was removed and replaced with staggered volumes of culture medium as in Example 1. A 10 mM stock of MS023 was thawed to room temperature and diluted in warm culture medium to achieve final concentrations of 3, 1, 0.3, 0.1, 0.03, and 0.01 μM in plate. A 10 mM stock of GR15 (SEQ ID NO: 1) and a 10 mM stock of PR15 (SEQ ID NO: 2) were equilibrated to room temperature and diluted in warm culture medium to achieve a final concentration of 3 μM in wells.
The following conditions were plated in triplicate. […]

The subject of data set [2] is NSC-34 cells. The data set is described as follows: BrdU ELISA (proliferation) in NSC-34 cells. As to conditions: DRP 0.01-3 μM, 24 h; compared to DMSO-treated controls. The format is cell-based, Mouse. As for the experimental part:
BrdU ELISA: The BrdU ELISA is an ELISA detecting cell proliferation activity. BrdU is a pyrimidine analog that, when inside the cell, can be incorporated instead of thymidine into newly synthesized strands of DNA. Just as is indicated by thymidine incorporation into DNA, BrdU incorporation into cell DNA indicates DNA synthesis activity, which is required for cell proliferation. In the BrdU ELISA, cells are treated with test compounds as well as BrdU reagent, and then incubated for 24 hours before testing. During testing, an anti-BrdU antibody detects the incorporation of BrdU into cell DNA that occurred over the 24-hour period, as a surrogate for cell proliferation activity. This anti-BrdU antibody is then labelled with a secondary antibody tagged with a colored substrate, which can be quantified spectrophotometrically. Greater absorbance readings correspond to more cell proliferation activity.
Cells were plated in culture medium in 2 96-well plates at a density of 3.7×10^4 cells per well, and incubated overnight at 37° C., 5% CO2.
The following conditions were plated in triplicate.
Plates were incubated for 24 h at 37° C., 5% CO2. Cells were tested and data were analyzed using the procedure detailed in BrdU ELISA kit instructions.
Cells were plated in culture medium in 2 96-well plates at a density of 5×10^4 cells per well, and incubated overnight at 37° C., 5% CO2. […] 10 μL of each concentration would be added to 100 μL base media in plate to achieve final concentrations of 3, 1, 0.3, 0.1, 0.03, and 0.01 μM DRP.
The following conditions were plated in triplicate. Samples were surrounded by border wells on the outside of the plate filled with sterile Phosphate-buffered saline to prevent evaporation of volume in experimental wells during incubation; • Culture medium only • Background (Cells only in culture medium, without BrdU reagent) • Untreated (Cells only in culture medium, with BrdU reagent) • DMSO Controls (Cells treated with BrdU reagent and the amount of DMSO that DRP-treated cells were exposed to at each concentration) • i. The DMSO controls tested were as follows, corresponding to DRP doses starting at the highest (3 μM to the lowest 0.01 μM), and were diluted in culture medium: • 1. 0.03% DMSO • 2. 0.01% DMSO • 3. 0.003% DMSO • 4. 0.001% DMSO • 5. 0.0003% DMSO • 6.

On to GPGPGPGPGPGPGPGPGPGPGPGPGPGPGP [GP15], for which the DRP-induced apoptotic activity result in data set [1] is “producing less robust levels of apoptotic activity”. Besides, the “effect of DRP on proliferation activity” value in data set [2] is on record as “did not significantly impact proliferation activity”.
For the sequence PAPAPAPAPAPAPAPAPAPAPAPAPAPAPA [PA15], the DRP-induced apoptotic activity result in data set [1] was “producing less robust levels of apoptotic activity”. Moreover, the “effect of DRP on proliferation activity” value in data set [2] is given as “did not significantly impact proliferation activity”.
